Results: US6462064B1, “Apoptosis inducing adamantyl derivatives and their usage as anti-cancer agents, especially for cervical cancers and dysplasias” (Galderma Research & Development S.N.C., priority 1996, dated 2002)
“Also recorded” adds a separate entry of the source.

System: cancer cells
Experiment: List of active compounds: types of cancers and precancers active against
Type: cell-based
Excerpt: As discussed, the adamantyl retinoid derivatives according to the invention which induce apoptosis are useful for treating many different types of cancers.

`O=C(O)c1ccc2cc(-c3ccc(OCCCO)c(C45CC6CC(CC(C6)C4)C5)c3)ccc2c1` [Compound 23, 6-[3-(1-adamantyl)-4-(3-hydroxypropoxy)phenyl]-2-naphthoic acid] was tested, and the “Types of Cancers and Precancers Active Against” value (“Types” for short) was “breast, leukemia, lymphoma”.
In the case of `CC12CC3CC(C)(C1)CC(c1cc(-c4ccc5cc(C(=O)O)ccc5c4)cc4c1OCO4)(C3)C2` [Compound 43, 6-[3-(3,5-dimethyl-1-adamantyl)-4,5-methylenedioxyphenyl]-2-naphthoic acid], the “Types” value is reported as “prostate, breast, neuroblastoma”.
In the case of `O=C(O)c1ccc(OC(=O)c2ccc(OCC(O)CO)c(C34CC5CC(CC(C5)C3)C4)c2)cc1` (centres unmarked) [Compound 33, 4-carboxyphenyl ester of 3-(1-adamantyl)-4-(2,3-dihydroxyproproxy)benzoic acid], the “Types” value is reported as “leukemia, skin”.
For `CCc1ccc(-c2ccc3cc(C(=O)O)ccc3c2)cc1C12CC3CC(CC(C3)C1)C2` [Compound 22, 6-[3-(1-adamantyl)-4-ethylphenyl]-2-naphthoic acid], the “Types” value was “breast, leukemia, myeloma”.
For `CC12CC3CC(C1)CC(c1cc(-c4ccc5cc(C(=O)O)ccc5c4)ccc1O)(C3)C2` [Compound 49, 6-[3-(3-methyl-1-adamantyl)-4-hydroxyphenyl]-2-naphthalenecarboxylic acid], the “Types” value was “breast, neuroblastoma, leukemia”.
With `O=C(CC(=O)C12CC3CC(CC(C3)C1)C2)Nc1ccc(C(=O)O)cc1` [Compound 25, N-(4-carboxyphenyl)-3-(1-adamantyl)-3-oxopropionamide] the “Types” value was “lymphoma”.
`COc1ccc(C(=O)Oc2ccc(C(=O)O)cc2F)cc1C12CC3CC(CC(C3)C1)C2` [Compound 21, 4-hydroxycarbonyl-2-fluorophenyl ester of 3-(1-adamantyl)-4-methoxybenzoic acid] was tested, and the “Types” value was “leukemia”.
`COc1cc(C(=O)/C=C/c2ccc(C(=O)O)cc2)ccc1C12CC3CC(CC(C3)C1)C2` [Compound 28, (E) 4-{3-oxo-3-[3-methoxy-4-(1-adamantyl)phenyl]prop-1-enyl}benzoic acid] was tested, and the “Types” value was “leukemia”.
For `COc1ccc(COc2ccc(C(=O)O)cc2)cc1C12CC3CC(CC(C3)C1)C2` [Compound 15, 4-[3-(1-adamantyl)-4-methoxybenzyloxy]benzoic acid], the “Types” value was “breast, leukemia, prostate”.
In the case of `NC(=O)CCCCCOc1ccc(/C=C/c2ccc(C(=O)O)cc2)cc1C12CC3CC(CC(C3)C1)C2` [Compound 30, (E) 4-{2-[4-(6-aminocarbonylpentyloxy)-3-(1-adamantyl)phenyl]ethenyl}benzoic acid], the “Types” value is reported as “lymphoma, myeloma”.
`COc1ccc(C(O)COc2ccc(C(=O)O)c(O)c2)cc1C12CC3CC(CC(C3)C1)C2` (centres unmarked) [Compound 26, 2-hydroxy-4-{2-[3-(1-adamantyl)-4-methoxyphenyl]-2-hydroxyethoxy}benzoic acid] was tested, and the “Types” value was “lymphoma”.
`NC(=O)c1ccc(-c2ccc3cc(C(=O)O)ccc3c2)cc1C12CC3CC(CC(C3)C1)C2` [Compound 24, 6-[3-(1-adamantyl)-4-aminocarbonylphenyl]-2-naphthoic acid] was tested, and the “Types” value was “leukemia, lymphoma”.
`Cc1cc(O)c(C23CC4CC(CC(C4)C2)C3)cc1-c1ccc2cc(C(=O)O)ccc2c1` [Compound 12, 6-[3-(1-adamantyl)-4-hydroxy-6-methylphenyl]-2-naphthoic acid] was tested, and the “Types” value was “head and neck, leukemia,; also recorded: pancreatic”.
With `O=C(O)c1ccc2cc(-c3ccc(C(O)CO)c(C45CC6CC(CC(C6)C4)C5)c3)ccc2c1` (centres unmarked) [Compound 11, 6-[3-(1-adamantyl)-4-(1,2-dihydroxyethyl)phenyl]-2-naphthoic acid] the “Types” value was “brain, breast, leukemia,; also recorded: pancreatic, skin”.
For `O=C(O)c1ccc2cc(-c3cc(O)c(O)c(C45CC6CC(CC(C6)C4)C5)c3)ccc2c1` [Compound 36, 6-[3-(1-adamantyl)-4,5-dihydroxyphenyl]-2-naphthoic acid], the “Types” value was “brain, head and neck, leukemia,; also recorded: lymphoma, myeloma, pancreatic”.
With `CC12CC3CC(C1)CC(c1cc(-c4ccc5cc(C(=O)O)ccc5c4)cc4c1OCO4)(C3)C2` [Compound 37, 6-[3-(3-methyl-1-adamantyl)-4,5-methylenedioxyphenyl]-2-naphthoic acid] the “Types” value was “kidney, leukemia, lung,; also recorded: lymphoma, skin”.
With `COc1ccc(-c2ccc3cc(C(=O)N4CCCNCC4)ccc3c2)cc1C12CC3CC(CC(C3)C1)C2` [Compound 44, N-{6-[3-(1-adamantyl)-4-methoxyphenyl]-2-naphthalenecarboxoyl}homopiperazide] the “Types” value was “bladder, kidney, epidermal,; also recorded: leukemia lung, neuroblastoma,; also recorded: hepatoma, cervix, skin”.
With `O=C(O)c1ccc2cc(-c3ccc(OC[C@@H](O)CO)c(C45CC6CC(CC(C6)C4)C5)c3)ccc2c1` [Compound 27, (S)-6-[3-(1-adamantyl)-4-(2S,3-dihydroxypropoxy)phenyl]-2-naphthoic acid] the “Types” value was “leukemia”.
With `COc1ccc(-c2ccc3cc(C(=O)O)ccc3c2)cc1C12CC3CC(C)(CC(C)(C3)C1)C2` [Compound 42, 6-[3-(3,5-dimethyl-1-adamantyl)-4-methoxyphenyl]-2-naphthoic acid] the “Types” value was “skin”.
With `O=C(O)c1ccc2cc(-c3ccc(OCC(O)CO)c(C45CC6CC(CC(C6)C4)C5)c3)ccc2c1` (centres unmarked) [Compound 34, 6-[3-(1-adamantyl)-4-(2,3-dihydroxypropoxy)phenyl]-2-naphthoic acid] the “Types” value was “leukemia, skin”.
`COC(=O)c1cc(O)c2cc(-c3ccc(OC)c(C45CC6CC(CC(C6)C4)C5)c3)ccc2c1C` [Compound 18, 1-methyl-4-hydroxy-6-[3-(1-adamantyl)-4-methoxyphenyl]-2-naphthoic acid methyl ester] was tested, and the “Types” value was “lymphoma, liver”.
With `O=C(O)c1ccc2cc(-c3cc4c(c(C56CC7CC(CC(C7)O5)C6)c3)OCO4)ccc2c1` [Compound 38, 6-[3-(2-oxa-1-adamantyl)-4,5-methylenedioxyphenyl]-2-naphthoic acid] the “Types” value was “leukemia, skin”.
`COc1ccc(-c2ccc3cc(C(=O)O)ccc3c2)cc1C12CC3CC(CC(C)(C3)O1)C2` [Compound 40, 6-[3-(2-oxa-3-methyl-1-adamantyl)-4-methoxyphenyl]-2-naphthoic acid] was tested, and the “Types” value was “bladder, breast, kidney,; also recorded: leukemia, lung, lymphoma,; also recorded: ovarian, prostate, skin”.
With `COc1ccc(C(=O)Oc2ccc(C(=O)O)c(F)c2)cc1C12CC3CC(CC(C3)C1)C2` [Compound 20, 4-[3-(1-adamantyl)-4-methoxybenzoyloxy]-2-fluorobenzoic acid] the “Types” value was “lymphoma, skin”.
In the case of `COc1ccc(-c2ccc3cc(C(=O)N4CCNCC4)ccc3c2)cc1C12CC3CC(CC(C3)C1)C2` [Compound 7, N-{6-[3-(1-adamantyl)-4-methoxyphenyl]-2-naphthalenecarboxoyl}piperizide], the “Types” value is reported as “brain, breast, head and neck,; also recorded: myeloma, prostate, skin”.
In the case of `COc1ccc(C(=O)Nc2ccc(C(=O)N3CCOCC3)cc2)cc1C12CC3CC(CC(C3)C1)C2` [Compound 19, N-{4-[N-(3-(1-adamantyl)-4-methoxybenzoyl)amido]benzoyl}morpholide], the “Types” value is reported as “kidney, myeloma, prostate, skin”.
`COc1ccc(-c2ccc3cc(C(=O)O)ccc3c2)cc1C12CC3CC(CC(C3)O1)C2` [Compound 39, 6-[3-(2-oxa-1-adamantyl)-4-methoxyphenyl]-2-naphthoic acid] was tested, and the “Types” value was “kidney, lymphoma, skin, liver”.
With `COC(=O)c1ccc(C(=O)Nc2ccc(C(=O)O)cc2)cc1C12CC3CC(CC(C3)C1)C2` [Compound 35, N-4-carboxyphenyl 3-(1-adamantyl)-4-(methoxycarbonyl)benzamide] the “Types” value was “leukemia, lymphoma, myeloma”.
For `CCC1OC(=O)C(C)C(OC2CC(C)(OC)C(OC(=O)c3ccc4cc(-c5ccc(OC)c(C67CC8CC(CC(C8)C6)C7)c5)ccc4c3)C(C)O2)C(C)C(OC2OC(C)CC(N(C)C)C2O)C(C)(O)CC(C)C(=O)C(C)C(O)C1(C)O` (centres unmarked) [Compound 32, 4″-Erythromycin A ester of 6-[3-(1-adamantyl)-4-methoxyphenyl]2-naphthoic acid], the “Types” value was “leukemia, lymphoma”.
For `COc1ccc(-c2ccc3cc(C(=O)O)ccc3c2)cc1C12CC3CC(CC(C)(C3)C1)C2` [Compound 41, 6-[3-(3-methyl-1-adamantyl)-4-methoxyphenyl]-2-naphthoic acid], the “Types” value was “skin”.
With `COc1cc(NC(=O)c2ccc(OC)c(C34CC5CC(CC(C5)C3)C4)c2)ccc1C(=O)O` [Compound 9, 4-[N-(3-(1-adamantyl)-4-methoxybenzoyl)amido]2-methoxybenzoic acid] the “Types” value was “head and neck, kidney, ovarian, and skin”.
In the case of `COc1ccc(-c2cc3cc(C(=O)O)ccc3o2)cc1C12CC3CC(CC(C3)C1)C2` [Compound 16, 2-[3-(1-adamantyl)-4-methoxyphenyl]-5-benzofurancarboxylic acid], the “Types” value is reported as “brain, breast, prostate”.
For `O=C(c1ccc2cc(-c3cc4c(c(C56CC7CC(CC(C7)C5)C6)c3)OCO4)ccc2c1)N1CCCNCC1` [Compound 47, N-{6-[3-(1-adamantyl)-4,5-methylenedioxy]-2-naphthalenecarboxoyl}homopiperazide], the “Types” value was “bladder, neuroblastoma, cervix, and skin”.
For `COc1ccc(-c2nc3ccc(C)cc3[nH]2)cc1C12CC3CC(CC(C3)C1)C2` [Compound 10, 2-[3-(1-adamantyl)-4-methoxyphenyl]-5-methylbenzimidazole], the “Types” value was “leukemia, lymphoma, myeloma”.
`COCCOCOc1ccc(C(=O)/C=C/c2ccc(C(=O)O)cc2)cc1C12CC3CC(CC(C3)C1)C2` [Compound 29, (E) 4-{3-oxo-3-[4-(2-methoxyethoxymethoxy)-3-(1-adamantyl)phenyl]prop-1-enyl}benzoic acid] was tested, and the “Types” value was “brain, leukemia, lung,; also recorded: lymphoma, prostate”.
